Assay [1] has as its system RS4;11 leukaemia tumour line. Nature of the assay: In vitro cytotoxicity (Microculture Tetrazolium Assay, 48 hours). The following applies: RS4;11 cells, 48 hours exposure, MTT, concentration that inhibits cell viability by 50%, read-out: IC50 (nM) MTT RS4. It counts as cell-based. How it is done:
The cytotoxicity studies were carried out on the RS4;11 leukaemia tumour line.
The cells are distributed onto microplates and exposed to the test compounds for 48 hours.

Another assay has as its target Bcl-2 protein (Homo sapiens (Human), UniProt P10415). Put plainly: Inhibition of Bcl-2 by the fluorescence polarisation technique. Type of assay: binding. The conditions noted are these: fluorescence polarisation test; concentration that inhibits fluorescence polarisation by 50%; read-out: IC50 (nM) Bcl-2 FP. As to the method: The fluorescence polarisation tests were carried out on microplates (384 wells). […] After incubation for 2 hours, the fluorescence polarisation is measured.
In general terms: Polarisation of emitted light reports the rotation of a fluorescent probe.

Structures can show the parent of a compound that is named as a salt. Where two headings read alike, the source gives them in different places.

Bcl-2 protein, sequence (P10415 whole entry): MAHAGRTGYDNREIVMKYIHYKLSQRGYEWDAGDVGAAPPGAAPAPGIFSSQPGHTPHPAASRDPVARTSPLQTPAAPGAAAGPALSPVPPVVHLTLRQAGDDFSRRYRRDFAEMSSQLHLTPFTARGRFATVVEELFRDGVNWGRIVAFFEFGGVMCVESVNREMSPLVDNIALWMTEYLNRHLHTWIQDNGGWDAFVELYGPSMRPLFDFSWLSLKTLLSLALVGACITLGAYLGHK

`O=C(c1cc(-c2cc(Cl)ccc2C(=O)N2Cc3ccccc3C[C@H]2CN2CCOCC2)n2c1COCC2)N(c1ccc(O)cc1)c1ccc2c(c1)CCN2` [Example 79, 6-{5-Chloro-2-[((3S)-3-(4-morpholinylmethyl)-3,4-dihydro-2(1H)-isoquinolinyl)carbonyl]phenyl}-N-(2,3-dihydro-1H-indol-5-yl)-N-(4-hydroxyphenyl)-3,4-dihydro-1H-pyrrolo[2,1-c][1,4]oxazine-8-carboxamide bis(hydrochloride)]: the IC50 in assay [1] (Homo sapiens) was 67.5 nM; on Bcl-2 protein, 31 nM.

Turning to `CN1CC2(CC2)c2cc(N(C(=O)c3cc(-c4cc(Cl)ccc4C(=O)N4Cc5ccccc5C[C@H]4CN4CCOCC4)n4c3CCCC4)c3ccc(O)cc3)ccc21` [Example 45, 3-{5-Chloro-2-[((3S)-3-(4-morpholinylmethyl)-3,4-dihydro-2(1H)-isoquinolinyl)carbonyl]phenyl}-N-(4-hydroxyphenyl)-N-(1′-methyl-1′,2′-dihydrospiro[cyclopropane-1,3′-indol]-5′-yl)-5,6,7,8-tetrahydro-1-indolizine carboxamide], the IC50 in assay [1] (Homo sapiens) was 76.8 nM; at Bcl-2 protein, 47 nM.

Regarding `Cc1ccc(N(C(=O)c2cc(-c3cc4c(cc3C(=O)N3Cc5ccccc5C[C@H]3CN3CCOCC3)OCO4)n3c2COCC3)c2ccc(O)cc2)cc1F` [Example 92, N-(3-Fluoro-4-methylphenyl)-N-(4-hydroxyphenyl)-6-(6-{[(3S)-3-(morpholin-4-ylmethyl)-3,4-dihydroisoquinolin-2(1H)-yl]carbonyl}-1,3-benzodioxol-5-yl)-3,4-dihydro-1H-pyrrolo[2,1-c][1,4]oxazine-8-carboxamide hydrochloride], the IC50 in assay [1] (Homo sapiens) was 40.2 nM; at Bcl-2 protein it was 5 nM.

Consider `O=C(c1cc(-c2cc(Cl)ccc2C(=O)N2Cc3ccccc3C[C@H]2CN2CCOCC2)n2c1CCCC2)N(c1ccc(O)cc1)c1ccc2c(c1)CCN2` [Example 21, 3-{5-Chloro-2-[((3S)-3-(4-morpholinylmethyl)-3,4-dihydro-2(1H)-isoquinolinyl)carbonyl]phenyl}-N-(2,3-dihydro-1H-indol-5-yl)-N-(4-hydroxyphenyl)-5,6,7,8-tetrahydro-1-indolizine carboxamide bis(hydrochloride)], for which the values for the half-inhibitory concentration (IC50) (in assay [1] (Homo sapiens); on Bcl-2 protein) were 34.6 nM and 22 nM, respectively.

Take `N#Cc1ccccc1N(C(=O)c1cc(-c2cc(Cl)ccc2C(=O)N2Cc3ccccc3C[C@H]2CN2CCOCC2)n2c1CCCC2)c1ccc(O)cc1` [Example 134, 3-(5-Chloro-2-{[(3S)-3-(morpholin-4-ylmethyl)-3,4-dihydroisoquinolin-2(1H)-yl]carbonyl}phenyl)-N-(2-cyanophenyl)-N-(4-hydroxyphenyl)-5,6,7,8-tetrahydroindolizine-1-carboxamide hydrochloride]: the concentration for half-maximal inhibition (IC50) in assay [1] (Homo sapiens) came out at 305 nM; on Bcl-2 protein it was 37 nM.

Regarding `Cn1ccc2cc(N(C(=O)c3cc(-c4cc(Cl)ccc4C(=O)N4Cc5ccccc5C[C@H]4CN4CCOCC4)n4c3COCC4)c3ccc(O)cc3)ccc21` [Example 86, 6-{5-Chloro-2-[((3S)-3-(4-morpholinylmethyl)-3,4-dihydro-2(1H)-isoquinolinyl)carbonyl]phenyl}-N-(4-hydroxyphenyl)-N-(1-methyl-1H-indol-5-yl)-3,4-dihydro-1H-pyrrolo[2,1-c][1,4]oxazine-8-carboxamide hydrochloride], the IC50 is 29.5 nM in assay [1] (Homo sapiens) and 22 nM on Bcl-2 protein.

Turning to `O=C(c1cc(-c2cc3c(cc2C(=O)N2Cc4ccccc4C[C@H]2CN2CCOCC2)OCO3)n2c1CCCC2)N(c1ccc(O)cc1)c1ccc(OC(F)(F)F)cc1` [Example 5, N-(4-Hydroxyphenyl)-3-{6-[((3S)-3-(4-morpholinylmethyl)-3,4-dihydro-2(1H)-isoquinolinyl)carbonyl]-1,3-benzodioxol-5-yl}-N-[4-(trifluoromethoxy)phenyl]-5,6,7,8-tetrahydro-1-indolizine carboxamide hydrochloride], the results for the IC50 (in assay [1] (Homo sapiens); on Bcl-2 protein) were 98 nM and 51 nM, respectively.

Regarding `Cn1ccc2cc(N(C(=O)c3cc(-c4cc(OC(F)(F)F)ccc4C(=O)N4Cc5ccccc5C[C@H]4CN4CCOCC4)n4c3CCCC4)c3ccc(O)cc3)ccc21` [Example 48, N-(4-Hydroxyphenyl)-N-(1-methyl-1H-indol-5-yl)-3-[2-[((3S)-3-(4-morpholinylmethyl)-3,4-dihydro-2(1H)-isoquinolinyl)carbonyl]-5-(trifluoromethoxy)-phenyl]-5,6,7,8-tetrahydro-1-indolizine carboxamide hydrochloride], the IC50 in assay [1] (Homo sapiens) came to 229 nM; at Bcl-2 protein, 130 nM.

For `O=C(c1cc(-c2cc(Cl)ccc2C(=O)N2Cc3ccccc3C[C@H]2CN2CCOCC2)n2c1CCCC2)N(c1ccc(O)cc1)c1ccccc1F` [Example 115, 3-(5-Chloro-2-{[(3S)-3-(morpholin-4-ylmethyl)-3,4-dihydroisoquinolin-2(1H)-yl]carbonyl}phenyl)-N-(2-fluorophenyl)-N-(4-hydroxyphenyl)-5,6,7,8-tetrahydroindolizine-1-carboxamide hydrochloride], the IC50 in assay [1] (Homo sapiens) turned out to be 58.1 nM; on Bcl-2 protein, 8 nM.

`CN1CCCc2cc(N(C(=O)c3cc(-c4cc5c(cc4C(=O)N4Cc6ccccc6C[C@H]4CN4CCOCC4)OCCO5)n4ccccc34)c3ccc(O)cc3)ccc21` [Example 69, N-(4-Hydroxyphenyl)-N-(1-methyl-1,2,3,4-tetrahydro-6-quinolinyl)-3-{7-[((3S)-3-(4-morpholinylmethyl)-3,4-dihydro-2(1H)-isoquinolinyl)carbonyl]-2,3-dihydro-1,4-benzodioxin-6-yl}-1-indolizine carboxamide hydrochloride]: the IC50 was 16.7 nM in assay [1] (Homo sapiens) and 26 nM on Bcl-2 protein.

`O=C(c1cc(-c2cc(Cl)ccc2C(=O)N2Cc3ccccc3C[C@H]2CN2CCOCC2)n2c1CCCC2)N(c1ccc(O)cc1)c1cccc(F)c1` [Example 116, 3-(5-Chloro-2-{[(3S)-3-(morpholin-4-ylmethyl)-3,4-dihydroisoquinolin-2(1H)-yl]carbonyl}phenyl)-N-(3-fluorophenyl)-N-(4-hydroxyphenyl)-5,6,7,8-tetrahydroindolizine-1-carboxamide hydrochloride]: the IC50 in assay [1] (Homo sapiens) amounted to 43.6 nM; on Bcl-2 protein, 10 nM.

Take `Cn1ccc2cc(N(C(=O)c3cc(-c4cc5c(cc4C(=O)N4Cc6ccccc6C[C@H]4CN4CCOCC4)OCCCO5)n4c3CCCC4)c3ccc(O)cc3)ccc21` [Example 32, N-(4-Hydroxyphenyl)-N-(1-methyl-1H-indol-5-yl)-3-{8-[((3S)-3-(4-morpholinylmethyl)-3,4-dihydro-2(1H)-isoquinolinyl)carbonyl]-3,4-dihydro-2H-1,5-benzodioxepin-7-yl}-5,6,7,8-tetrahydro-1-indolizine carboxamide hydrochloride]: the IC50 was 71.3 nM in assay [1] (Homo sapiens) and 34 nM at Bcl-2 protein.

For `C[C@H]1COC[C@H](C)N1C[C@@H]1Cc2ccccc2CN1C(=O)c1cc2c(cc1-c1cc(C(=O)N(c3ccc(O)cc3)c3ccc4c(ccn4C)c3)c3n1CCCC3)OCO2` [Example 17, 3-{6-[((3S)-3-{[(3S,5S)-3,5-Dimethylmorpholinyl]methyl}-3,4-dihydro-2(1H)-isoquinolinyl)carbonyl]-1,3-benzodioxol-5-yl}-N-(4-hydroxyphenyl)-N-(1-methyl-1H-indol-5-yl)-5,6,7,8-tetrahydro-1-indolizine carboxamide hydrochloride], the IC50 in assay [1] was found to be 120 nM; at Bcl-2 protein it was 81 nM.

One may read the IC50 as the point on the concentration scale where inhibition reaches its midpoint.
